Assay results from article PMC9452764, “Pseudomonas syringae pv. tomato infection of tomato plants is mediated by GABA and L‐Pro chemoperception” (Molecular Plant Pathology, 2022).
Where two headings read alike, the source gives them in different places.

Target: T1, PsPto‐PscC‐LBD (Pseudomonas syringae group genomosp. 3, UniProt Q883C0)
T1 construct: gene PSPTO_2448; pET28b(+) derivative p2448-LBD, HisTrap purified, E. coli BL21(AI)
Experiment: isothermal titration calorimetry
Assay type: binding

T1 sequence (Q883C0 entry or part of it): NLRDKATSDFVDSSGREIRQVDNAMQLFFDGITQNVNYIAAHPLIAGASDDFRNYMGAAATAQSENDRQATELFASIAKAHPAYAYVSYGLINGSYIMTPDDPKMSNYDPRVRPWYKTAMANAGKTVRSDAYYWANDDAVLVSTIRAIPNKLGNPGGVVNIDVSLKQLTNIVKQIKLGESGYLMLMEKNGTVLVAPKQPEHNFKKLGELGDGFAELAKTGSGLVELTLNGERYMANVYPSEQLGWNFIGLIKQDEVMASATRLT

SMILES	Kd (read-out: K D) [µM]	Kd [µM]
NCCCC(=O)O [GABA]	1.87 ± 0.3	
O=C(O)[C@@H]1CCCN1 [L‐Pro]		4.52 ± 0.4
